We go through 1 compound from publication PMC4106781, “Efficacy of Selective PDE4D Negative Allosteric Modulators in the Object Retrieval Task in Female Cynomolgus Monkeys (Macaca fascicularis)” (PLoS ONE, 2014).

One data set relates to NHPs. Conditions: cited from earlier work.
Data set [1] relates to female Cynomolgus monkeys. The data set is described as follows: Object retrieval (OR) detour task. The data set is classed as in vivo, Cynomolgus macaques (Macaca fascicularis). The text has this: A total of n = 8 female Cynomolgus monkeys aged 4–6 years were trained in the OR task and were used for these studies, following a cross-over design. Animals were trained to ensure adequate and stable performance during the dosing studies. Animals were individually housed prior to the initiation of the study. Animals were habituated to the oral gavage method using positive reinforcement techniques for a minimum of 2 weeks prior to the initiation of OR testing to mitigate any adverse impact on behaviour. To ensure accurate dosing each individual was momentarily restrained in a ‘standing’ type primate chair to allow easy and gentle passage of the gavage tube. The oral doses were administered in a dose volume of 1.0 mL/Kg which was followed with 5 mL of purified water to ensure no residual compound formulation remained in the gavage tube. During dose habituation and the study the same study personnel administered the compounds and thus a non-stressful, familiar routine for the animals was achieved.
The OR task, [55] requires the subject to retrieve a food reward from a clear acrylic box (dimensions = 5×5×5 cm) with one open side which is positioned in front of the subject on a metal holder fixed to the outside of the home cage. The cube is presented to the subject with the open side facing left, right, or toward the monkey in a randomised set list of easy versus difficult trials. Food rewards (raisins or cubes of fruit pieces 1–2 cm^2) were placed on the outer edge, inner edge, line of sight (all easy), or deep within the box (difficult). Each test session consisted of 17 trials, with an initial Easy phase of 3 easy trials followed by a Random phase of 9 trials (4 difficult and 5 easy, presented randomly for each session), followed by a Difficult phase of 4 difficult trials and finally one final Easy Trial (Figure 2A). The final easy trial was included for reward purposes and although the number of attempts was recorded the data were not used for analysis. For successive test sessions, the subject was presented with the trials in an order exactly the reverse of the previous session (previous left side exposure became right side exposure and vice-versa). Individual trials within one OR session were terminated if there were no reaches or successful retrieval of the reward within 2 minutes by the subject. The acrylic box was cleaned between trials to minimize cues which may influence subsequent task performance through easier identification of the cube entrance.
Animals were habituated to the metal frame prior to introducing the OR cube. During training, the animals were exposed to the OR trials as depicted in Figure 2A for 4 occasions (twice a week- OR trial # T1-T4 – data not shown). Importantly, during this period of training, all animals acquired the rewards even after an incorrect first reach. OR evaluations were then subsequently conducted once per week to discourage learning and thus ensure no performance shift during the pharmacology study (Figure 2B). […]
Baseline performance was targeted to be an average, stable performance of >50% correct responses in the easy tasks, with less than 40% correct responses in the difficult tasks (Figure 2B). All animals evaluated during this phase met these criteria by the end of the training session, with the exception of one animal, which was a baseline ‘high performer’ on difficult trials (Animal 3939). […]

Data set [2] has as its system female Cynomolgus monkeys. The data set is described as follows: Clinical observations (retching, emesis, salivation) during OR and PK studies. The data set is classed as in vivo, Cynomolgus macaques (Macaca fascicularis). Conditions: 0.03 mg/kg IM; one animal (5B09), 20 minutes post dose. As for the experimental part: • Week 1: Animals were habituated to intramuscular injections daily using the ‘rolipram’ vehicle formulation (10% solutol (w/v), 90% saline vehicle in a 0.1 mL/Kg dose volume) Monday through Friday, and a single baseline OR trial evaluation was performed on Wednesday (OR4) (Figure 2A). Animals were dosed with vehicle 30 minutes prior to this behavioural evaluation. • Weeks 2 to 5: Evaluation of rolipram in OR task. Following the stable baseline performance establishment (OR1 – 4), all animals were administered the 3 doses of rolipram (0.003, 0.01 and 0.03 mg/Kg) or vehicle intramuscularly 30 minutes before evaluation on the OR task, every Wednesday through Weeks 2–5 (OR5-8). All animals were dosed with vehicle on the preceding Monday and Tuesday to keep them habituated to the injections and avoid any Pavlovian conditioning to any pro-emetic effects of treatment, although no OR testing was carried out on those days. Treatment was administered at approximately the same time each day and administered via the intramuscular route at a volume of 0.1 mL/kg. […]
Animals were closely monitored for the duration of the study, and were videotaped during task performance. Body weights were monitored weekly. Clinical observations were recorded prior to dose administration and after the completion of each OR task. […]

Where [3] appears, read: repeat measures ANOVA, dose group as factor.

Turning to `COc1ccc(C2CNC(=O)C2)cc1OC1CCCC1` (stereo not drawn) [rolipram, Rolipram], the retching result in the data set with NHPs (0.05 mg/kg IM, separate study, ref Maccine, personal communication) is reported as “all animals retching”. Moreover, the emesis result in the data set with NHPs (0.06 mg/kg) was “emesis”. The “emesis (monkeys affected)” value in the data set with NHPs (0.1 mg/kg) was 12 of 14. Also, the “mean percent correct first reaches, difficult trials (effect vs vehicle)” value in data set [1] (0.01 mg/kg IM) is recorded as “significance was not observed”. Further, the “mean percent correct first reaches, difficult trials” value in data set [1] (0.03 mg/Kg IM, 30 min before OR, mean ± SEM, vehicle 22±8%) is recorded as 42±8%. Moreover, in data set [1] (setting [3]), the “mean percent correct first reach, easy level trials (effect of dosing)” value was “No significant improvement”; the “number of barrier reaches, difficult trials (effect of dosing)” value is “No significant change”; the “total number of reaches, difficult trials (effect of dosing)” value is “No significant change”. The adverse reactions entry in data set [2] is “Retching and severe salivation”.
